Assay results reported in PMC2075610 (Biochimica et Biophysica Acta. Molecular Basis of Disease, 2006).
Residues, ends and D or L forms follow the SMILES beside them. *: point of attachment. For = O=C*

What was measured:
Test in all cases: biochemical
R190/N192 FPR [1] = target: T1, R190/N192 FPR (Homo sapiens, UniProt P21462); type: binding
R190/K192 FPR [2] = target: T2, R190/K192 FPR (Homo sapiens, UniProt P21462, N192K); type: binding
W190/N192 FPR [3] = target: T3, W190/N192 FPR (Homo sapiens, UniProt P21462, R190W); type: biochemical
W190/N192 FPR [4] = target: T3, W190/N192 FPR; type: binding; conditions: Ki (nM ± SEM) for binding of peptides to W190/N192 FPR
R190/N192 FPR [5] = target: T1, R190/N192 FPR; type: biochemical
R190/K192 FPR [6] = target: T2, R190/K192 FPR; type: biochemical

T2 sequence (P21462 whole entry N192K, looked up): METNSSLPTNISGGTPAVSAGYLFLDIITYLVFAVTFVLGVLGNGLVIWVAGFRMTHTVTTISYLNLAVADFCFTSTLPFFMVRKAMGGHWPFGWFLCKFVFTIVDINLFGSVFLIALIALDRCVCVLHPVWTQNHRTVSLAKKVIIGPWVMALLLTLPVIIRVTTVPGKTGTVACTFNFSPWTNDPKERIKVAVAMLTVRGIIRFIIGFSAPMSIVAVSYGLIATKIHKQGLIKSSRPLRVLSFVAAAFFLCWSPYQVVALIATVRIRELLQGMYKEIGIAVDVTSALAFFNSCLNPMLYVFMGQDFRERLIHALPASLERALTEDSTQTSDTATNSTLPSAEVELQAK
T3 sequence (P21462 whole entry R190W, looked up): as the sequence (P21462 whole entry N192K, looked up) above, with R190W, K192N counted along it
T1 sequence (P21462 whole entry, looked up): as the sequence (P21462 whole entry N192K, looked up) above, with K192N counted along it

**Q.** `CC[C@H](C)[C@H](NC(=O)[C@H](Cc1ccc(O)cc1)NC(=O)[C@@H](NC(=O)[C@@H](N)CCC(=O)O)[C@@H](C)O)C(=O)N[C@@H](CCCCN)C(=O)N[C@@H](Cc1c[nH]c2ccccc12)C(=O)N1CCC[C@H]1C(=O)O` [ETYIKWP] (H-ETYIKWP-OH) was tested. Which Ki (R190/N192 FPR [1]) did it give?
**A.** > 260 µM

**Q.** And the Ki (R190/K192 FPR [2])?
**A.** > 260 µM

**Q.** What about the “EC50 for inhibition of stimulation of GTPγS binding by formyl-Nle–Leu–Phe” value (W190/N192 FPR [3]) of the same molecule?
**A.** had no effect

**Q.** What about the Ki (W190/N192 FPR [4]) of the same molecule?
**A.** > 260000 nM

**Q.** Which Ki (R190/N192 FPR [1]) does the source give for `CC[C@H](C)[C@H](NC(=O)[C@H](C)NC(=O)[C@H](CCC(=O)O)NC(=O)[C@H](CCC(N)=O)NC(=O)[C@H](CC(C)C)NC(=O)[C@H](CCCNC(=N)N)NC(=O)[C@H](CC(N)=O)NC(=O)[C@@H](N)CCSC)C(=O)N[C@@H](CCCCN)C(=O)N[C@H](C(=O)N[C@@H](CC(C)C)C(=O)N[C@@H](CC(N)=O)C(=O)N[C@@H](CCC(N)=O)C(=O)N[C@@H](CO)C(=O)N[C@@H](Cc1ccc(O)cc1)C(=O)N[C@H](C(=O)N[C@@H](CC(N)=O)C(=O)N[C@@H](CC(C)C)C(=O)N[C@@H](CCCCN)C(=O)N[C@@H](CC(=O)O)C(=O)N[C@H](C(=O)NCC(=O)N[C@H](C(=O)N[C@@H](Cc1ccc(O)cc1)C(=O)N[C@@H](CCC(=O)O)C(=O)N[C@@H](Cc1ccc(O)cc1)C(=O)N[C@@H](Cc1ccc(O)cc1)C(=O)N[C@H](C(=O)N[C@@H](CCCCN)C(=O)N[C@@H](Cc1c[nH]c2ccccc12)C(=O)N1CCC[C@H]1C(=O)N[C@@H](Cc1c[nH]c2ccccc12)C(=O)N[C@@H](Cc1ccc(O)cc1)C(=O)N[C@H](C(=O)N[C@@H](Cc1c[nH]c2ccccc12)C(=O)N[C@@H](CC(C)C)C(=O)O)C(C)C)C(C)C)[C@@H](C)O)[C@@H](C)CC)[C@@H](C)CC)C(C)C` [Coronavirus OC43 36mer] here?
**A.** 0.85 ± 0.08 µM

**Q.** And the Ki (R190/K192 FPR [2])?
**A.** 0.74 ± 0.08 µM

**Q.** What about the Ki (W190/N192 FPR [4]) of the same molecule?
**A.** 460 ± 50 nM

**Q.** With `CSCC[C@H](NC=O)C(=O)N[C@@H](Cc1ccc(O)cc1)C(=O)N[C@H](C(=O)N[C@@H](CCCCN)C(=O)N[C@@H](Cc1c[nH]c2ccccc12)C(=O)N1CCC[C@H]1C(=O)N[C@@H](Cc1c[nH]c2ccccc12)C(=O)N[C@@H](Cc1ccc(O)cc1)C(=O)N[C@H](C(=O)N[C@@H](Cc1c[nH]c2ccccc12)C(=O)N[C@@H](CC(C)C)C(=O)O)C(C)C)C(C)C` (For-MYVKWPWYVWL-OH) as the molecule, how does the Ki (R190/N192 FPR [1]) read?
**A.** 0.134 ± 0.009 µM

**Q.** And the “stimulation of GTPγS binding” value (R190/N192 FPR [5])?
**A.** stimulated GTPγS binding

**Q.** What about the “stimulation of GTPγS binding” value (R190/K192 FPR [6]) of the same molecule?
**A.** stimulated GTPγS binding

**Q.** And the Ki (R190/K192 FPR [2])?
**A.** 0.134 ± 0.012 µM

**Q.** What about the “stimulation of GTPγS binding” value (W190/N192 FPR [3]) of the same molecule?
**A.** stimulated GTPγS binding

**Q.** What about the Ki (W190/N192 FPR [4]) of the same molecule?
**A.** 133 ± 8 nM

**Q.** How did the Ki (R190/N192 FPR [1]) turn out when `CC(C)C[C@H](NC(=O)[C@H](Cc1c[nH]c2ccccc12)NC(=O)[C@@H](NC(=O)[C@H](Cc1c[nH]c2ccccc12)NC(=O)[C@@H](N)Cc1c[nH]c2ccccc12)C(C)C)C(=O)O` [WWVWL] (H-WWVWL-OH) was run?
**A.** ~1 µM

**Q.** What about the Ki (R190/K192 FPR [2]) of the same molecule?
**A.** ~1.4 µM

**Q.** And the EC50 (W190/N192 FPR [3])?
**A.** 1.3 µM

**Q.** What about the Ki (W190/N192 FPR [4]) of the same molecule?
**A.** ~600 nM

**Q.** What does the source list for `CC[C@H](C)[C@H](NC(=O)[C@H](CC(N)=O)NC(=O)[C@H](CC(=O)O)NC(=O)[C@@H](NC(=O)[C@H](CC(C)C)NC(=O)[C@@H](NC(=O)[C@H](CCC(N)=O)NC(=O)[C@H](CC(C)C)NC(=O)[C@H](CCCCN)NC(=O)[C@H](CCC(N)=O)NC(=O)[C@@H](N)C(C)C)[C@@H](C)O)[C@@H](C)CC)C(=O)N[C@@H](CC(N)=O)C(=O)N[C@@H](CO)C(=O)N[C@H](C(=O)N[C@@H](CC(C)C)C(=O)N[C@H](C(=O)N[C@@H](CC(=O)O)C(=O)N[C@@H](CC(C)C)C(=O)N[C@@H](CCCCN)C(=O)N[C@@H](Cc1c[nH]c2ccccc12)C(=O)N[C@@H](CC(C)C)C(=O)N[C@@H](CC(N)=O)C(=O)N[C@@H](CCCNC(=N)N)C(=O)N[C@H](C(=O)N[C@@H](CCC(=O)O)C(=O)N[C@H](C(=O)N[C@@H](Cc1ccc(O)cc1)C(=O)N[C@H](C(=O)N[C@@H](CCCCN)C(=O)N[C@@H](Cc1c[nH]c2ccccc12)C(=O)N1CCC[C@H]1C(=O)N[C@@H](Cc1c[nH]c2ccccc12)C(=O)N[C@@H](Cc1c[nH]c2ccccc12)C(=O)N[C@H](C(=O)N[C@@H](Cc1c[nH]c2ccccc12)C(=O)N[C@@H](CC(C)C)C(=O)O)C(C)C)[C@@H](C)CC)[C@@H](C)O)C(C)C)C(C)C)[C@@H](C)O` [Coronavirus 229E 36 mer]?
**A.** Ki (R190/N192 FPR [1]): 10 µM; Ki (R190/K192 FPR [2]): 6.8 µM; Ki (W190/N192 FPR [4]): 1300 ± 60 nM

**Q.** `CC(C)C[C@H](NC(=O)[C@H](CO)NC(=O)[C@H](C)NC(=O)[C@H](Cc1c[nH]c2ccccc12)NC(=O)[C@H](CCCCN)NC(=O)[C@H](CC(=O)O)NC(=O)[C@H](CC(C)C)NC(=O)[C@@H](N)CCC(=O)O)C(=O)N[C@@H](Cc1c[nH]c2ccccc12)C(=O)N[C@@H](CC(N)=O)C(=O)N[C@@H](Cc1c[nH]c2ccccc12)C(=O)N[C@@H](Cc1ccccc1)C(=O)O` (H-ELDKWASLWNWF-OH) was tested. Which Ki (R190/N192 FPR [1]) did it give?
**A.** 1.2 ± 0.1 µM

**Q.** What about the Ki (R190/K192 FPR [2]) of the same molecule?
**A.** 0.94 ± 0.15 µM

**Q.** And the Ki (W190/N192 FPR [4])?
**A.** 1050 ± 100 nM

**Q.** `CC(C)C[C@H](NC(=O)[C@H](Cc1c[nH]c2ccccc12)NC(=O)[C@@H](NC(=O)[C@H](Cc1c[nH]c2ccccc12)NC(=O)[C@H](Cc1c[nH]c2ccccc12)NC(=O)[C@@H]1CCCN1C(=O)[C@@H](N)Cc1c[nH]c2ccccc12)C(C)C)C(=O)O` [WPWWVWL] (H-WPWWVWL-OH) was tested. Which Ki (R190/N192 FPR [1]) did it give?
**A.** ~0.6 µM

**Q.** What about the Ki (R190/K192 FPR [2]) of the same molecule?
**A.** ~0.6 µM

**Q.** What about the Ki (W190/N192 FPR [4]) of the same molecule?
**A.** ~600 nM

**Q.** Which results are given for `CC[C@H](C)[C@H](NC(=O)[C@H](CC(N)=O)NC(=O)[C@H](C)NC(=O)[C@H](CCC(=O)O)NC(=O)[C@H](CC(C)C)NC(=O)[C@@H](N)Cc1ccc(O)cc1)C(=O)N[C@@H](CO)C(=O)N[C@@H](CCC(=O)O)C(=O)N[C@@H](CC(C)C)C(=O)N[C@@H](CC(C)C)C(=O)N[C@@H](CCC(=O)O)C(=O)N[C@@H](CCC(N)=O)C(=O)N[C@@H](C)C(=O)N[C@@H](CCC(N)=O)C(=O)N[C@H](C(=O)N[C@@H](CCC(N)=O)C(=O)N[C@@H](CCC(N)=O)C(=O)N[C@@H](CCC(=O)O)C(=O)N[C@@H](CCCCN)C(=O)N[C@@H](CC(N)=O)C(=O)N[C@@H](CCSC)C(=O)N[C@@H](Cc1ccc(O)cc1)C(=O)N[C@@H](CCC(=O)O)C(=O)N[C@@H](CC(C)C)C(=O)N[C@@H](CCC(N)=O)C(=O)N[C@@H](CCCCN)C(=O)N[C@@H](CC(C)C)C(=O)N[C@@H](CC(N)=O)C(=O)N[C@@H](CO)C(=O)N[C@@H](Cc1c[nH]c2ccccc12)C(=O)N[C@@H](CC(=O)O)C(=O)N[C@H](C(=O)N[C@@H](Cc1ccccc1)C(=O)NCC(=O)N[C@@H](CC(N)=O)C(=O)N[C@@H](Cc1c[nH]c2ccccc12)C(=O)N[C@@H](Cc1ccccc1)C(=O)O)C(C)C)[C@@H](C)CC` [HIV-2 37 mer]?
**A.** Ki (R190/N192 FPR [1]): 15.7 µM; Ki (R190/K192 FPR [2]): 10 µM; Ki (W190/N192 FPR [4]): 4000 ± 1000 nM

**Q.** `CSCC[C@H](NC(=O)[C@@H](N)CCSC)C(=O)N[C@@H](Cc1c[nH]c2ccccc12)C(=O)N[C@@H](CC(C)C)C(=O)N[C@@H](CC(C)C)C(=O)O` [MMWLL, reference compound] (H-MMWLL-OH) was tested. Which Ki (R190/N192 FPR [1]) did it give?
**A.** 0.33 ± 0.05 µM

**Q.** What about the Ki (R190/K192 FPR [2]) of the same molecule?
**A.** 0.19 ± 0.03 µM

**Q.** And the “fold higher affinity for R190/K192 than for W190/N192” value (R190/K192 FPR [2])?
**A.** ~3 fold

**Q.** What about the Ki (W190/N192 FPR [4]) of the same molecule?
**A.** 840 ± 200 nM

**Q.** Which results are given for `CC(C)C[C@H](NC(=O)[C@@H](N)CCCCN)C(=O)N[C@@H](CC(N)=O)C(=O)N[C@@H](CO)C(=O)N[C@@H](Cc1c[nH]c2ccccc12)C(=O)N[C@@H](CC(=O)O)C(=O)N[C@H](C(=O)N[C@@H](Cc1ccccc1)C(=O)NCC(=O)N[C@@H](CC(N)=O)C(=O)N[C@@H](Cc1c[nH]c2ccccc12)C(=O)N[C@@H](Cc1ccccc1)C(=O)O)C(C)C`?
**A.** Ki (R190/N192 FPR [1]): 15 µM; Ki (R190/K192 FPR [2]): 9.5 µM; Ki (W190/N192 FPR [4]): 4700 ± 290 nM
